{"source": "the SangsterLogP compilation", "key": {"[1]": {"experiment": "method code SF-HPLC, from Huang, H.; YU, D.; Wang, C.; Shi, S.; Shi, J. (2014). Determination of apparent oil/water partition coefficient of spinosin. Yaowu fenxi zazhi, 34(3)497-499.", "conditions": "pH 7.4"}, "[2]": {"experiment": "not given", "remark": "listed apart in the source"}, "[3]": {"experiment": "not given", "remark": "listed apart in the source"}, "[4]": {"experiment": "method code SF-RC, from DOI: 10.1016/0378-5173(86)90124-9"}, "[5]": {"experiment": "not given", "remark": "listed apart in the source"}, "[6]": {"experiment": "method code SF-AS, from DOI: 10.1016/s0960-894x(99)00527-2, PMID: 10571171", "conditions": "pH 7.0"}, "[7]": {"experiment": "method code SF-AS, from DOI: 10.1002/qua.560100722", "conditions": "pH 7.8"}, "[8]": {"experiment": "method code SF-RC, from DOI: 10.1016/j.nucmedbio.2014.03.016, PMID: 24776092", "conditions": "pH 7.4"}, "[9]": {"experiment": "method code SF-HPLC, from Xiong, Ð. (2009). Apparent partiton coefficient of hawthorn leaf flavonoids in phospholipids complex. Chinese Traditional Patent Medicine, 31(7)1075-1078."}, "[10]": {"experiment": "method code SF-RC, from PMID: 3346819", "conditions": "pH 7.4"}, "[11]": {"experiment": "method code SF-AS, from DOI: 10.1021/jm00371a014, PMID: 6716401", "conditions": "pH 7.4"}, "[12]": {"experiment": "method code SF-AS, from DOI: 10.1248/cpb.25.1350, PMID: 890858", "conditions": "pH 6.5"}, "[13]": {"experiment": "not given", "remark": "listed apart in the source"}, "[14]": {"experiment": "method code SF-RC, from DOI: 10.1016/s0022-2275(20)42614-8, PMID: 2280184", "conditions": "pH 1.0"}, "[15]": {"experiment": "method code SF-RC, from PMID: 9639294", "conditions": "pH 7.5"}, "[16]": {"experiment": "not given", "remark": "listed apart in the source"}, "[17]": {"experiment": "method code SF-AS, from DOI: 10.1562/0031-8655(2002)076<0127:dlbcop>2.0.co;2, PMID: 12194207", "conditions": "pH 7.3"}, "[18]": {"experiment": "method code SF, from DOI: 10.1021/jm00079a001, PMID: 1732531", "conditions": "pH 7.4"}, "[19]": {"conditions": "pH 7.4"}, "[20]": {"experiment": "method code SF, from DOI: 10.1016/s0928-0987(97)10019-7", "conditions": "pH 7.4"}, "[21]": {"experiment": "method code SF, from DOI: 10.1016/0378-5173(85)90077-8"}, "[22]": {"experiment": "method code SF-HPLC, from PMID: 8932441", "conditions": "pH 7.4"}, "[23]": {"experiment": "method code SF-HPLC, from DOI: 10.1211/0022357001774101, PMID: 10813545"}, "[24]": {"experiment": "method code SF-HPLC, from DOI: 10.1023/a:1016359301852, PMID: 24271710"}, "[25]": {"experiment": "method code SF-HPLC, from PMID: 3219139", "conditions": "pH 9.0"}, "[26]": {"experiment": "method code SF-GLC, from DOI: 10.1021/je990149u"}, "[27]": {"experiment": "method code SF-RC, from DOI: 10.1002/jps.2600730807, PMID: 6491907"}, "[28]": {"experiment": "method code SF-RC, from DOI: 10.1002/jps.2600770619, PMID: 3171939", "conditions": "pH 2.0"}, "[29]": {"experiment": "method code SF-AS, from DOI: 10.1021/ja00198a050"}, "[30]": {"experiment": "not given", "remark": "listed apart in the source"}, "[31]": {"experiment": "not given", "remark": "listed apart in the source"}, "[32]": {"experiment": "not given", "remark": "listed apart in the source"}, "[33]": {"experiment": "method code SF-AS, from DOI: 10.1562/0031-8655(2003)0780411sacotn2.0.co2, PMID: 14626671", "conditions": "pH 6.8"}, "[34]": {"experiment": "not given", "remark": "listed apart in the source"}}, "data": [{"smiles": "CO[C@@H](CC[C@H](C)[C@H]1O[C@@]23CC(OC(=O)C[C@H]([C@@H](C)O)OC(=O)C[C@](O)(O2)[C@H](C)CC3(C)C)[C@@H]1C)c1cc(O)ccc1Br", "values": [{"measurement": "logP", "value": 5.4}]}, {"smiles": "COc1cc2oc(-c3ccc(O)cc3)cc(=O)c2c(O)c1[C@@H]1O[C@H](CO)[C@@H](O)[C@H](O)[C@H]1O[C@@H]1O[C@H](CO)[C@@H](O)[C@H](O)[C@H]1O", "values": [{"measurement": "logD", "setting": "[1]", "value": 0.56}]}, {"smiles": "N#CC(CCN1CCC(C(N)=O)(N2CCCCC2)CC1)(c1ccccc1)c1ccccc1", "values": [{"measurement": "logP", "setting": "[2]", "value": 3.91}]}, {"smiles": "CCCN(CCC)C(=O)Cc1c(-c2ccc(OC(=O)NCCc3ccc(O)c(O)c3)cc2)nc2ccc(Cl)cn12", "values": [{"measurement": "logP", "setting": "[3]", "value": 4.3}]}, {"smiles": "CCCCC[C@H](O)/C=C/[C@@H]1[C@@H](C/C=C\\CCCC(=O)OCc2ccccc2)[C@@H](O)C[C@H]1O", "values": [{"measurement": "logP", "setting": "[4]", "value": 4.11}]}, {"smiles": "COc1cccc2c1C(=O)c1c(O)c3c(c(O)c1C2=O)C[C@@](O)(C(=O)CO)C[C@@H]3O[C@H]1C[C@H](N)[C@H](I)[C@H](C)O1", "values": [{"measurement": "logP", "setting": "[5]", "value": 1.53}]}, {"smiles": "O=C(NCCN(CCNC(=O)c1ccc2cccnc2c1O)CCNC(=O)c1ccc2cccnc2c1O)c1ccc2cccnc2c1O", "values": [{"measurement": "logD", "setting": "[6]", "value": 1}]}, {"smiles": "COc1cccc2c1C(=O)c1c(O)c3c(c(O)c1C2=O)CC(O)(C(C)=O)CC3OC1CC(NC(=O)CNC(=O)CN(C)C)C(O)C(C)O1", "note": "(stereo not given)", "values": [{"measurement": "logD", "setting": "[7]", "value": 1.12}]}, {"smiles": "C[C@H](CCC(=O)NCc1cn(CCF)nn1)[C@H]1CC[C@H]2[C@@H]3[C@H](O)C[C@@H]4C[C@H](O)CC[C@]4(C)[C@H]3CC[C@]12C", "values": [{"measurement": "logD", "setting": "[8]", "value": 1.61}]}, {"smiles": "C[C@@H]1O[C@@H](OC[C@H]2O[C@@H](Oc3c(-c4ccc(O)c(O)c4)oc4cc(O)cc(O)c4c3=O)[C@H](O)[C@@H](O)[C@@H]2O)[C@H](O)[C@H](O)[C@H]1O", "values": [{"measurement": "logP", "setting": "[9]", "value": -0.09}]}, {"smiles": "CC(CNC(=O)c1ccccc1)C(=O)OCC(=O)C12OC(C)(C)OC1CC1C3CCC4=CC(=O)C=CC4(C)C3(F)C(O)CC12C", "note": "(stereo not given)", "values": [{"measurement": "logD", "setting": "[10]", "value": 2.3}]}, {"smiles": "COc1cccc2c1C(=N)c1c(O)c3c(c(O)c1C2=O)C[C@](O)(C(=O)CO)C[C@@H]3O[C@H]1C[C@@H](N2CCOC[C@@H]2C#N)[C@@H](O)[C@@H](C)O1", "values": [{"measurement": "logD", "setting": "[11]", "value": 1.97}]}, {"smiles": "CCC(=O)OCc1c(CSSCc2cnc(C)c(OC(=O)CC)c2COC(=O)CC)cnc(C)c1OC(=O)CC", "values": [{"measurement": "logD", "setting": "[12]", "value": 2.68}]}, {"smiles": "CC1(C)CC[C@]2(C(=O)O)CC[C@]3(C)C(=CC[C@@H]4[C@@]5(C)CC[C@H](O)C(C)(C)[C@@H]5CC[C@]43C)[C@@H]2C1", "values": [{"measurement": "logP", "setting": "[13]", "value": 3.63}]}, {"smiles": "CC(CCC(=O)NCC(=O)O)C1CCC2C3CCC4CC(O)CCC4(C)C3CC(O)C12C", "note": "(stereo in doubt)", "values": [{"measurement": "logD", "setting": "[14]", "value": 2.25}]}, {"smiles": "CCOC(=O)C1=C(COCCOCCNC(=O)C(C)(C)C)NC(C)=C(C(=O)OC)C1c1cccc(Cl)c1Cl", "note": "(stereo not given)", "values": [{"measurement": "logD", "setting": "[15]", "value": 2.12}]}, {"smiles": "CC(C)(C)NC(=O)[C@@H]1C[C@@H]2CCCC[C@@H]2CN1C[C@@H](O)[C@H](Cc1ccccc1)NC(=O)[C@H](CC(N)=O)NC(=O)c1ccc2ccccc2n1", "values": [{"measurement": "logP", "setting": "[16]", "value": 3}]}, {"smiles": "COC(=O)CCC1=C(C)c2cc3cc(C)c(cc4cc(C)c(cc5nc(cc1n2)C(CCC(=O)OC)=C5C)[nH]4)[nH]3", "values": [{"measurement": "logD", "setting": "[17]", "value": 3.95}]}, {"smiles": "C=CCC(NC(=O)C(Cc1ccccc1)NS(=O)(=O)N1CCOCC1)C(=O)NC(CC1CCCCC1)C(=O)C(F)(F)C(=O)NCC(C)CC", "note": "(stereo not given)", "values": [{"measurement": "logD", "setting": "[18]", "value": 4.63}]}, {"smiles": "CCN1CC(C(O)C(CC2CCCCC2)NC(=O)C(Cc2cscn2)NC(=O)C(CC(=O)N2CCOCC2)Cc2ccccc2)OC1=O", "note": "(stereo not given)", "values": [{"measurement": "logD", "setting": "[19]", "value": 2.83}]}, {"smiles": "CC(C)(C)S(=O)(=O)C[C@@H](Cc1ccccc1)C(=O)N[C@@H](Cc1cnc[nH]1)C(=O)N[C@@H](CC1CCCCC1)[C@@H](O)[C@@H](O)C1CC1", "values": [{"measurement": "logD", "setting": "[20]", "value": 2.75}]}, {"smiles": "CCCCCCCC(=O)OCC(=O)[C@@]1(O)CC[C@H]2[C@@H]3CCC4=CC(=O)CC[C@]4(C)[C@H]3C(=O)C[C@@]21C", "values": [{"measurement": "logP", "setting": "[21]", "value": 4.22}]}, {"smiles": "CCCCOC(=O)NS(=O)(=O)c1ccccc1-c1ccc(Cn2c(CCC)nc(CC)c2C(C)=O)c(F)c1", "values": [{"measurement": "logD", "setting": "[22]", "value": 1.72}]}, {"smiles": "C[C@]12CC[C@H]3[C@@H](CCC4=CC(=O)CC[C@@]43C)[C@@H]1CC[C@@H]2OC(=O)CCC1CCCC1", "values": [{"measurement": "logP", "setting": "[23]", "value": 4.89}]}, {"smiles": "C#CC1(OC(=O)c2ccn(C)c2)CCC2C3CCC4=CC(=O)CCC4C3CCC21C", "note": "(stereo not given)", "values": [{"measurement": "logP", "setting": "[24]", "value": 4.44}]}, {"smiles": "COC(=O)C1=C(C)NC(C)=C(C(=O)O[C@@H]2CCCN(Cc3ccccc3)C2)[C@@H]1c1cccc([N+](=O)[O-])c1", "note": "(relative stereo)", "values": [{"measurement": "logD", "setting": "[25]", "value": 3.47}]}, {"smiles": "CCCCCCCCCCOC(=O)c1ccccc1C(=O)OCCCCCCCCCC", "values": [{"measurement": "logP", "setting": "[26]", "value": 9.05}]}, {"smiles": "CC1OC(OC2C(O)CC(OC3C(O)CC(OC4CCC5(C)C(CCC6C5CC(O)C5(C)C(C7COC(=O)C7)CCC65O)C4)OC3C)OC2C)CC(O)C1O", "note": "(stereo not given)", "values": [{"measurement": "logP", "setting": "[27]", "value": 1.25}]}, {"smiles": "CC1(C)C(OC(=O)CCC(=O)O)CC[C@@]2(C)[C@H]1CC[C@]1(C)[C@H]2C(=O)C=C2[C@@H]3C[C@@](C)(C(=O)O)CC[C@]3(C)CC[C@]21C", "note": "(stereo not given in full)", "values": [{"measurement": "logD", "setting": "[28]", "value": 2.81}]}, {"smiles": "CC(C)(C)c1ccc2c(c1)OCCOCCOCCOCCOCCOCCOCCOCCO2", "values": [{"measurement": "logP", "setting": "[29]", "value": 1.89}]}, {"smiles": "O=C(NNCc1ccncc1)C1CCCN1C(=O)C(Cc1ccc(Cl)c(Cl)c1)NS(=O)(=O)Cc1ccccc1", "note": "(stereo not given)", "values": [{"measurement": "logP", "setting": "[30]", "value": 2.57}]}, {"smiles": "COc1cc(CN2C(=O)N(Cc3cccc(C(=O)Nc4cnc(C)cn4)c3)C(Cc3ccccc3)C(O)C(O)C2Cc2ccccc2)cc(OC)c1", "note": "(stereo not given)", "values": [{"measurement": "logP", "setting": "[31]", "value": 5.59}]}, {"smiles": "CCn1c(=O)c2c(nc(C=Cc3ccc(C(=O)OCCOCCOCCOCCOCCOCCOCCOCCOCCOC)c(OC)c3)n2C)n(CC)c1=O", "values": [{"measurement": "logP", "setting": "[32]", "value": 2.8}]}, {"smiles": "COc1c(O)c2c(=O)cc(OC)c3c4c(OC)cc(=O)c5c(O)c(NCCN6CCOCC6)c6c(c(c1C(C(C)=O)=C(C)C6)c23)c54", "values": [{"measurement": "logD", "setting": "[33]", "value": 1.15}]}, {"smiles": "COc1ccc(CCN(C)CCCC(C#N)(c2cc(OC)c(OC)c(OC)c2)C(C)C)cc1OC", "note": "(stereo not given)", "values": [{"measurement": "logP", "setting": "[34]", "value": 3.71}]}]}
